The test has as its target human PDHK2 (hPDHK2) (Homo sapiens (Human), UniProt Q15119). Description: Inhibitory action of PDHK activity in vitro (kinase reaction, residual PDH activity measured). It is filed as biochemical.
[1] abbreviates: PDHK inhibitory activity IC50 (μmol/L).
The mark [2] stands for this setting: PDHK inhibitory activity, class symbol of IC50.
The mark [3] stands for this setting: read-out: PDHK inhibitory activity IC50.
Setting [4] is: PDHK inhibitory activity (class symbol).
[5] abbreviates: class symbol of IC50, read-out: PDHK inhibitory activity.

SMILES strings stand for the structures. Like-named read-outs stand apart in the source and are kept apart here.

As to `Cc1cc(-c2cnn(CCO)c2)c2c(c1)[C@@](O)(C(F)(F)F)c1ccccc1-2` (stereo in doubt) [compound 529], the IC50 was 0.017 µM under setting [1] and less than 0.1 µM under setting [2].
`OCC(CO)n1cc(-c2cc(F)cc3c2-c2ccccc2C3(O)C(F)(F)F)cn1` (single isomer, unassigned; (+)) [compound 595, (+)-2-[4-(2-fluoro-9-hydroxy-9-trifluoromethyl-9H-fluoren-4-yl)-pyrazol-1-yl]-propane-1,3-diol]: the IC50 by setting is: under setting [2], less than 0.1 µM; under setting [3], 0.022 µM.
The matching figures for `CN(C)C(=O)CCCOc1ccc2c(c1)C(O)(C(F)(F)F)c1ccccc1-2` (centres unmarked) [compound 282]: 0.1 to 1 µM and 0.226 µM.
The corresponding values for `OC1(C(F)(F)F)c2ccccc2-c2ccc(OCC3CCCCC3)cc21` (centres unmarked) [compound 253] are greater than 1 µM and 1.95 µM.
The matching figures for `CN(C)C(=O)C1CCN(c2ccc3c(c2)C(O)(C(F)(F)F)c2ccccc2-3)CC1` (centres unmarked) [compound 232]: greater than 1 µM and 1.99 µM.
For the compound `NC(=O)CCn1cc(-c2cccc3c2-c2ccccc2C3(O)C(F)(F)F)cn1` (centres unmarked) [compound 486], the IC50 runs as follows: under setting [2], less than 0.1 µM; under setting [3], 0.055 µM.
As for `O=C(c1ccc2c(c1)C(O)(C(F)(F)F)c1ccccc1-2)N1CC(OCCO)C1` (centres unmarked) [compound 108], the IC50 is 0.1 to 1 µM under setting [2] and 0.462 µM under setting [3].
For `Oc1ccc2c(c1)-c1ccccc1C2(O)C(F)(F)F` (centres unmarked) [compound 62], the IC50 runs as follows: under setting [2], greater than 1 µM; under setting [3], 15.7 µM.
In the case of `OC1(C(F)(F)F)c2ccccc2-c2ccc(OCC3CCCC3)cc21` (centres unmarked) [compound 254], the IC50 by setting is: under setting [2], greater than 1 µM; under setting [3], 1.13 µM.
The matching figures for `CN(C)C(=O)CCn1cc(-c2cccc3c2-c2ccccc2C3(O)C(F)(F)F)cn1` (centres unmarked) [compound 488]: less than 0.1 µM and 0.052 µM.
The matching figures for `OCCn1cc(-c2cccc3c2-c2ccccc2C3(O)C(F)(F)F)cn1` (centres unmarked) [compound 411]: less than 0.1 µM and 0.066 µM.
The matching figures for `CN(C)c1cccc2c1-c1ccccc1C2(O)C(F)(F)F` (centres unmarked) [compound 84]: greater than 1 µM and 42.1 µM.
Take `COC(=O)N1CCN(c2ccc3c(c2)C(O)(C(F)(F)F)c2ccccc2-3)CC1` (centres unmarked) [compound 210]: the IC50 was greater than 1 µM under setting [2] and 1.33 µM under setting [3].
On to `COC(=O)c1cc(C(=O)OC)c2c(c1)C(O)(C(F)(F)F)c1ccccc1-2` (centres unmarked) [compound 50], for which the IC50 is 0.1 to 1 µM under setting [2] and 0.1 µM under setting [3].
The matching figures for `CCCOC(=O)c1cccc2c1-c1ccccc1C2(O)C(F)(F)F` (centres unmarked) [compound 59]: 0.1 to 1 µM and 0.772 µM.
Take `CC(C)(C)Cn1cc(-c2cc(C(N)=O)c3c(c2)C(O)(C(F)(F)F)c2ccccc2-3)cn1` (single isomer, unassigned) [compound 659, 2-[1-(2,2-dimethyl-propyl)-1H-pyrazol-4-yl]-9-hydroxy-9-trifluoromethyl-9H-fluorene-4-carboxylic acid amide]: the IC50 runs as follows: under setting [4], less than 0.1 µM; under setting [3], 0.016 µM.
On to `COC(=O)COc1ccc2c(c1)C(O)(C(F)(F)F)c1ccccc1-2` (centres unmarked) [compound 357], for which the IC50 was greater than 1 µM under setting [2] and 1.94 µM under setting [3].
Turning to `OCCCOc1ccc2c(c1)C(O)(C(F)(F)F)c1ccccc1-2` (centres unmarked) [compound 284], the IC50 was greater than 1 µM under setting [2] and 1.17 µM under setting [3].
The matching figures for `O=C(O)CCOc1ccc2c(c1)C(O)(C(F)(F)F)c1ccccc1-2` (centres unmarked) [compound 291]: greater than 1 µM and 5.83 µM.
For the compound `OCC1(n2cc(-c3cc(F)cc4c3-c3ccccc3[C@]4(O)C(F)(F)F)cn2)CCCCC1` (stereo in doubt) [compound 545], the IC50 was 0.017 µM under setting [1] and less than 0.1 µM under setting [2].
For `Cc1ccc2c(c1)-c1ccccc1C2(O)C(F)(F)F` (centres unmarked) [compound 10], the IC50 was greater than 1 µM under setting [2] and 30.8 µM under setting [3].
The corresponding values for `CCOC(=O)c1cccc2c1-c1ccccc1C2(O)C(F)(F)F` (centres unmarked) [compound 48] are 0.1 to 1 µM and 0.639 µM.
On to `O=C(O)c1cc(-c2cncnc2)c2c(c1)C(O)(C(F)(F)F)c1ccccc1-2` (centres unmarked) [compound 367], for which the IC50 is, setting by setting: under setting [5], greater than 1 µM; under setting [3], greater than 1 µM.
With `OCCCCOc1cc(CO)c2c(c1)C(O)(C(F)(F)F)c1ccccc1-2` (centres unmarked) [compound 611], the IC50 runs as follows: under setting [4], 0.1 to 1 µM; under setting [3], 0.329 µM.
`COCOCCN1C(=O)CCC1COc1ccc2c(c1)C(O)(C(F)(F)F)c1ccccc1-2` (centres unmarked) [compound 431]: the IC50 under setting [2] fell in the range of 0.1 to 1 µM and the IC50 under setting [3] came out at 0.25 µM.
In the case of `CC(=O)NCCOc1ccc2c(c1)C(O)(C(F)(F)F)c1ccccc1-2` (centres unmarked) [compound 325], the IC50 is, setting by setting: under setting [2], greater than 1 µM; under setting [3], 1.08 µM.
The matching figures for `O=C(c1ccc2c(c1)C(O)(C(F)(F)F)c1ccccc1-2)N1CCC(O)C1` (centres unmarked) [compound 215]: greater than 1 µM and 4.6 µM.
For `CC(=O)N(C)CCOc1cnc2c(c1)C(O)(C(F)(F)F)c1ccccc1-2` (centres unmarked) [compound 398], the IC50 reads like this: under setting [2], 0.1 to 1 µM; under setting [3], 0.119 µM.
The corresponding values for `OC1(C(F)(F)F)c2ccccc2-c2ccc(-n3cccn3)cc21` (centres unmarked) [compound 560] are 0.1 to 1 µM and 0.97 µM.
The corresponding values for `NC(=O)Cn1cc(-c2cc(Cl)cc3c2-c2ccccc2C3(O)C(F)(F)F)cn1` (centres unmarked) [compound 506] are less than 0.1 µM and 0.03 µM.
`CNC(=O)CCCOc1ccc2c(c1)C(O)(C(F)(F)F)c1ccccc1-2` (centres unmarked) [compound 281]: the IC50 is, setting by setting: under setting [2], greater than 1 µM; under setting [3], 1 µM.
The corresponding values for `O=C(O)CCCOc1cc(-c2cccnc2)c2c(c1)C(O)(C(F)(F)F)c1ccccc1-2` (single isomer, unassigned) [compound 561] are less than 0.1 µM and 0.05 µM.
Take `CC(C)n1cc(-c2ccc3c(c2)C(O)(C(F)(F)F)c2cccc(CO)c2-3)cn1` (centres unmarked) [compound 593]: the IC50 under setting [5] was greater than 1 µM and the IC50 under setting [3] was greater than 1 µM.
Consider `Cn1cc(-c2cc(CC(N)=O)c3c(c2)C(O)(C(F)(F)F)c2ccccc2-3)cn1` (centres unmarked) [compound 637], for which the IC50 is greater than 1 µM (read-out: PDHK inhibitory activity (class symbol)) and greater than 1 µM under setting [3].
In the case of `NC(=O)c1cc(-c2cncnc2)cc2c1-c1ccccc1C2(O)C(F)(F)F` (centres unmarked) [compound 658], the IC50 is less than 0.1 µM under setting [4] and 0.071 µM under setting [3].
For the compound `OC1(C(F)(F)F)c2ccccc2-c2ccc(-c3ccccc3Cl)cc21` (centres unmarked) [compound 150], the IC50 by setting is: under setting [2], greater than 1 µM; under setting [3], 6.84 µM.
The matching figures for `COc1cc(-c2cnn(CCO)c2)c2c(c1)C(O)(C(F)(F)F)c1ccccc1-2` (centres unmarked) [compound 458]: less than 0.1 µM and 0.039 µM.
The matching figures for `COC(=O)c1cc(-c2cncnc2)c2c(c1)C(O)(C(F)(F)F)c1ccccc1-2` (centres unmarked) [compound 364]: 0.1 to 1 µM and 0.178 µM.
The corresponding values for `CCCCOc1ccc2c(c1)C(O)(C(F)(F)F)c1ccccc1-2` (centres unmarked) [compound 249] are 0.1 to 1 µM and 0.719 µM.
With `CC(C)Cn1cc(-c2cc(C(N)=O)c3c(c2)C(O)(C(F)(F)F)c2ccccc2-3)cn1` (centres unmarked) [compound 645], the IC50 under setting [4] was less than 0.1 µM and the IC50 under setting [3] turned out to be 0.037 µM.

Values taken from patent US8871934B2, “Fluorene compound and pharmaceutical use thereof” (Japan Tobacco Inc., priority 2008, dated 2014).
